According to PMC3914206:

What was measured:
Format in all cases: binding
Details in all cases: Compound Concentration 10 µM
[1] = molecular target: T1, panel of 442 kinases (Homo sapiens, UniProt O75460)
T1 construct: purchased KINOMEscan
Text: (§1) We assessed the selectivity of members of this scaffold using the KINOMEscan methodology across a near comprehensive panel of 442 kinases [[18,27]].

[2] = molecular target: T2, panel of 442 kinases (Homo sapiens, UniProt P08069)
T2 construct: purchased KINOMEscan
T2 sequence (P08069 31-1367): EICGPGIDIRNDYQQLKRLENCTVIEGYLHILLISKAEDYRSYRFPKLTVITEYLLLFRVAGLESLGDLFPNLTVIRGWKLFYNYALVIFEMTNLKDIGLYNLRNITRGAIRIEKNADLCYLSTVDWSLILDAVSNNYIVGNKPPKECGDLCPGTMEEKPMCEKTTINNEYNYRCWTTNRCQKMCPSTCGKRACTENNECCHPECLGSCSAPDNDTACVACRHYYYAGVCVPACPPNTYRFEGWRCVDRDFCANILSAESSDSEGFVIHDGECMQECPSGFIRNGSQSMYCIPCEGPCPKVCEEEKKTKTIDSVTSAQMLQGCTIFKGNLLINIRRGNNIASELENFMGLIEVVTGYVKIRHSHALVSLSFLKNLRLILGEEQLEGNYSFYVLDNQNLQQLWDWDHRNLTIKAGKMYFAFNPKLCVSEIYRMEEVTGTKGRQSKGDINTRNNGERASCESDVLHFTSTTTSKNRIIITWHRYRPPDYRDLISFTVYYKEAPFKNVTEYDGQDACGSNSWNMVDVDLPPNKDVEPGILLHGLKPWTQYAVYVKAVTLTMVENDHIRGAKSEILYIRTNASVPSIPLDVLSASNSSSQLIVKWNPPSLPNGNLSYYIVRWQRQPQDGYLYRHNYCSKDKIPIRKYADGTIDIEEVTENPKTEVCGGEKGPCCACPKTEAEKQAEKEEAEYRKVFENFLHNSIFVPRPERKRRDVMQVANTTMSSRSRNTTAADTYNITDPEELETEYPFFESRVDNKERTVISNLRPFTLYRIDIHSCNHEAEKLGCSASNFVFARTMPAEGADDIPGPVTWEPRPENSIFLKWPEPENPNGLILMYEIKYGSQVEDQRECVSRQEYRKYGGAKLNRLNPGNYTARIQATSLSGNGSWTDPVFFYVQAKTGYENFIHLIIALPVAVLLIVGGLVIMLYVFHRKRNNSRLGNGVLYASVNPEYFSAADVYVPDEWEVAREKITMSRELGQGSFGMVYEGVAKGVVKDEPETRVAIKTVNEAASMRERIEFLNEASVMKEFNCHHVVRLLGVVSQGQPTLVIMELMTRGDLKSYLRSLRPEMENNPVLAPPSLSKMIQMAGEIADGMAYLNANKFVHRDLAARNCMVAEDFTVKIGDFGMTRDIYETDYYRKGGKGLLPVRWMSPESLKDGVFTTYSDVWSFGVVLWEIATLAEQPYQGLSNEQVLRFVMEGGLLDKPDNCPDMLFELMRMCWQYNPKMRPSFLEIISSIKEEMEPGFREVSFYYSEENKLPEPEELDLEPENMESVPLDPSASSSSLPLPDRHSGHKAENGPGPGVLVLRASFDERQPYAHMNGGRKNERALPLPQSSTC
Text: as §1

[3] = molecular target: T3, panel of 442 kinases (Homo sapiens, UniProt Q9H4B4)
T3 construct: purchased KINOMEscan
T3 sequence (Q9H4B4 whole entry): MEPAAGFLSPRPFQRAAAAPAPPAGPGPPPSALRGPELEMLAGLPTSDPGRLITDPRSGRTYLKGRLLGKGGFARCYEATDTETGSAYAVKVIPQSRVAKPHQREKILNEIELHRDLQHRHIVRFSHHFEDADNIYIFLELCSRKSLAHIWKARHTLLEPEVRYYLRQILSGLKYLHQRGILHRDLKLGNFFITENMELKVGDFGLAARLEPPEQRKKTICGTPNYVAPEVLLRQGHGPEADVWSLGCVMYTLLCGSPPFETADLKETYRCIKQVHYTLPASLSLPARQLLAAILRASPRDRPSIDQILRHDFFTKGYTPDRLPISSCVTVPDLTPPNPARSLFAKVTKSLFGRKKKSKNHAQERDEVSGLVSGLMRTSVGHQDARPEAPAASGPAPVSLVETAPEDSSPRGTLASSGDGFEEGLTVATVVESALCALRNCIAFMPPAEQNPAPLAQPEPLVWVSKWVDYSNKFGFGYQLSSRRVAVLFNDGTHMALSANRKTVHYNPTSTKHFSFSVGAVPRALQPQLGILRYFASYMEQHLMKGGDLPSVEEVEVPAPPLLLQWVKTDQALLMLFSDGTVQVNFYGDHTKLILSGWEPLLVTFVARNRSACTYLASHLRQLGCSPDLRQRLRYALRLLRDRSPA
Text: as §1

T1 sequence (O75460 19-977): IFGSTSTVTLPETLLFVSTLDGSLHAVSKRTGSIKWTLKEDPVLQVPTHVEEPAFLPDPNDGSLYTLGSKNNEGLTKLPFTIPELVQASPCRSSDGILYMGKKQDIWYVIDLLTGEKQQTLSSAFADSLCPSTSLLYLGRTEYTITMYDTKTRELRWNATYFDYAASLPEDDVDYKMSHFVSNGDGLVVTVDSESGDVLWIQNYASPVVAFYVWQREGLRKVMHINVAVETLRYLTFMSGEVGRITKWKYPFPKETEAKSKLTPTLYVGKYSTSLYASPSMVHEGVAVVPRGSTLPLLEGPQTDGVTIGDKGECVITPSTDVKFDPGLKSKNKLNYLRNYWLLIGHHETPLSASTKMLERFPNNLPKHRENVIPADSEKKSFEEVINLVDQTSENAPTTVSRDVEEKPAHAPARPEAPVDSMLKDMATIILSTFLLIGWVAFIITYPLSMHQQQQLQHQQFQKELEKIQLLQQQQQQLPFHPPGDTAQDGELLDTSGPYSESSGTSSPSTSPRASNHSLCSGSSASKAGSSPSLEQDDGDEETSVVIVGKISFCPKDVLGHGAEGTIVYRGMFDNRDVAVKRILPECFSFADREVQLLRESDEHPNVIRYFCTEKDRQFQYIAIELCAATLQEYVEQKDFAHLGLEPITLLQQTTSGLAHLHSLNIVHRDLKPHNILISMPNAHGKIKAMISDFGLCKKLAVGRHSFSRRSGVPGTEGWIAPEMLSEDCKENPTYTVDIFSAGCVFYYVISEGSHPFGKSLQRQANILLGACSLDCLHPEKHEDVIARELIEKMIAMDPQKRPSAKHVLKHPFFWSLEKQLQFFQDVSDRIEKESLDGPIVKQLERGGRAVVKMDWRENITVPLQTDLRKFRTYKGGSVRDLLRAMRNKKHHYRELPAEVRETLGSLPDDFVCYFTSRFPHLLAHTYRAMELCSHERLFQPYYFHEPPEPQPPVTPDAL

Compound	KINOMEscan: ERN1 [1]	KINOMEscan: IGF1R [2]	KINOMEscan: PLK3 [3]
COc1cc(C(=O)N2CCC(N3CCN(C)CC3)CC2)ccc1Nc1ncc2c(n1)N(C1CCCC1)c1ccccc1C(=O)N2C [Compound 25, 11-cyclopentyl-2-((2-methoxy-4-(4-(4-methylpiperazin-1-yl)piperidine-1-carbonyl)phenyl)amino)-5-methyl-5H-benzo[e]pyrimido[5,4-b][1,4]diazepin-6(11H)-one]	96	89	73
CCOc1cc(C(=O)N2CCC(N3CCN(C)CC3)CC2)ccc1Nc1ncc2c(n1)N(C1CCCC1)c1ccccc1C(=O)N2C [Compound 26]	87	100	84
COc1cc(C(=O)N2CCC(N3CCN(C)CC3)CC2)ccc1Nc1ncc2c(n1)N1CCc3cccc(c31)C(=O)N2C [Compound 24]	–	–	3.8
COc1cc(C(=O)N2CCC(N3CCN(C)CC3)CC2)ccc1Nc1ncc2c(n1)N(C)c1ccccc1C(=O)N2C [15 (LRRK2-IN-1)]	59	96	51
